Literature values in patent US7560120B2, “Vehicles for delivery of biologically active substances” (University of Tennessee Research Foundation, priority 2002, dated 2009).
Where a name gives a salt, the structure may show the parent alone. Read-outs that look alike come from different tables or passages of the source.

Legend:
Rat [1] = conditions: oral
[2] = not given; remark: listed apart in the source
Rat [3] = conditions: in vivo, sc

Row | Structure (SMILES) | LD50 (Rat [1]) | Viscosity (cps) at 25° C. | Water Solubility at 25° C. (g/100 ml) [2] | LD50 (Rat [3])
1 | CCCCCCOC(=O)CC(CC(=O)OCCCCCC)(OC(C)=O)C(=O)OCCCCCC [A-6, Acetyltri-n-hexyl Citrate] | 20000 mg/kg | 36 cps | – | –
2 | CCCCOC(=O)CC(CC(=O)OCCCC)(OC(C)=O)C(=O)OCCCC [ATBC, Acetyl Tributyl Citrate] | >25000 mg/kg | 33 cps | <0.1 g/100 ml | –
3 | CCOC(=O)CC(CC(=O)OCC)(OC(C)=O)C(=O)OCC [ATEC, acetyl triethyl citrate] | 7000 mg/kg | 54 cps | – | –
4 | CCCCCCOC(=O)CC(CC(=O)OCCCCCC)(OC(=O)CCC)C(=O)OCCCCCC [B-6, Butyryltri-n-hexyl Citrate] | 2000 mg/kg | 28 cps | – | –
5 | CCCCOC(=O)CC(O)(CC(=O)OCCCC)C(=O)OCCCC [TBC, Tributyl Citrate] | >30000 mg/kg | 32 cps | <0.1 g/100 ml | –
6 | CCOC(=O)CC(O)(CC(=O)OCC)C(=O)OCC [TEC, triethyl citrate] | – | 35 cps | – | 6600 mg/kg
